From ChEMBL document CHEMBL1201862, “PubChem BioAssay data set” (2004)
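Where inhibition never reached the appropriate level, the endpoint shown equals the highest concentration tested. Otherwise, values were interpolated linearly from a five-concentration, 48-hour dose response in 96-well plates. At the GI50, growth is halved.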 Calls of active or inactive are those of the source. Rule as the data show it: active = GI50 up to about 1.1 µM and inactive = higher.

Experiments:
Assay in all cases: growth of human tumour cells (NCI), 48 h
OVCAR-5 = tested on: OVCAR-5
MOLT-4 = tested on: MOLT-4
HT-29 = tested on: HT-29
COLO 205 = tested on: COLO 205
LOX IMVI = tested on: LOX IMVI
SNB-75 = tested on: SNB-75
KM12 = tested on: KM12
SW-620 = tested on: SW-620
SK-OV-3 = tested on: SK-OV-3
HCT-15 = tested on: HCT-15
SNB-19 = tested on: SNB-19
NCI-H460 = tested on: NCI-H460
UACC-257 = tested on: UACC-257
OVCAR-8 = tested on: OVCAR-8
IGROV-1 = tested on: IGROV-1
OVCAR-3 = tested on: OVCAR-3
SF-268 = tested on: SF-268
UO-31 = tested on: UO-31
786-0 = tested on: 786-0
CCRF-CEM = tested on: CCRF-CEM

For `CCCCN(CC)c1nc(C)nc2c1c(C)c(C)n2-c1c(C)cc(C)cc1C` [ANTALARMIN], the GI50 (OVCAR-5) was 15.3 µM (inactive), the GI50 (MOLT-4) was 10.9 µM (inactive) and the GI50 (HT-29) was 10.5 µM (inactive). For the same compound, the GI50 (COLO 205) was 15.6 µM (inactive), the GI50 (LOX IMVI) was 15.6 µM (inactive) and the GI50 (SNB-75) was 14.3 µM (inactive). The GI50 (KM12) was 17.6 µM (inactive), the GI50 (SW-620) was 15.7 µM (inactive) and the GI50 (SK-OV-3) was 17.1 µM (inactive). The GI50 (HCT-15) was 13.6 µM, the GI50 (SNB-19) was 16.4 µM (inactive) and the GI50 (NCI-H460) was 13.2 µM (inactive). For the same compound, the GI50 (UACC-257) was 13.3 µM (inactive), the GI50 (OVCAR-8) was 14.2 µM (inactive) and the GI50 (IGROV-1) was 14.5 µM (inactive). For the same compound, the GI50 (OVCAR-3) was 13.3 µM (inactive), the GI50 (SF-268) was 17.4 µM (inactive) and the GI50 (UO-31) was 14.7 µM (inactive). The GI50 (786-0) was 16.5 µM (inactive) and the GI50 (CCRF-CEM) was 11.3 µM (inactive).
